Source: patent US4749710A, “Immunosuppressive agents” (priority 1985, dated 1988)

Tested on: murine cytotoxic T-lymphocyte responses
Assay: cells
Assay type: cell-based
Conditions: for CTL activity (% specific ^51 Cr release): 90:1 effector to target
Excerpt: Immunosuppressive Activity of Vitamin D compounds on cytotoxic T lymphocyte Responses-General Test Description
Cytotoxic thymus-derived lymphocytes (CTL) constitute an important aspect of immune function and, as a result, play a key role in the rejection of grafted cells, tissues and organs. It is, therefore, essential to suppress CTL generation in a clinical situation in which CTL function is antithetical to the desired outcome as, for example, in transplantation. Cytotoxic T-lymphocytes have been studied for several years by many investigators and methods to evaluate CTL responses in vitro are well established.
As described below, CTL responses as affected by Vitamin D derivatives, were studied in vitro using cells from lab animals and human volunteers. Cytotoxic T-lymphocytes were generated from responder lymphoid cells in tissue culture medium during an incubation period of 6 days by exposure to foreign stimulator cells, i.e. from a genetically disparate source. A portion of the resultant effector cells were CTL capable of killing fresh cells related to the stimulator cells employed in the 6 day culture. To detect killing of cells by CTL, fresh target cells were incubated in excess ^51 chromium (as sodium chromate) until they were extensively labelled. Since target cells will retain the internalized radioisotope as long as they are viable but release the label when they are killed, CTL activity was assessed by quantitating the chromium released from target cells after a 4 or 18 hour incubation with CTL. Immunosuppression produced by Vitamin D derivatives was gauged as the ability to inhibit CTL responses during the initial incubation period relative to control cultures to which no Vitamin D derivative was added.
Female BALB/c By and C57BL/6 mice were obtained from Jackson Laboratories and were used between 8 and 10 weeks of age. Mice were given food and water ad libitum and were kept in a 12 hour light and 12 hour dark cycle.
For murine cultures, minimal essential medium with Hank's salts was supplemented to 1 millimolar with sodium pyruvate, to 0.1 millimolar with nonessential amino acids, to 2 millimolar with 1-glutamine, to 10% (v/v) with heat-inactivated fetal bovine serum, to 50 micrograms per ml with gentamicin, and to 1000 milligrams per liter with sodium bicarbonate and was used as tissue culture medium.
Stock solutions of Vitamin D derivatives were made in argon-saturated ethanol at a final concentration of 1×10^-2 molar, were covered with argon before sealing and were stored at -20° C. in the dark. Reduced lighting conditions were always employed when working with compounds. Compounds were diluted in tissue culture medium to 1×10^-4 molar and all subsequent dilutions were done in tissue culture medium containing 1% v/v ethanol. The final dilution into culture vessels was 1:10 thus keeping the vehicle concentration constant at 0.1% while varying the concentration of compound as tabulated in the results. For purposes of control, mixed leukocyte cultures were incubated in medium only (medium control) or in medium containing a final concentration of 0.1% ethanol (vehicle control).
Murine cytotoxic T-lymphocytes were generated in mixed leukocyte cultures by known methods. Specifically, single cell suspensions were prepared from spleens by gentle disruption in balanced salt solution (Hanks' balanced salt solution supplemented to 10%, v/v, with fetal bovine serum). After sedimentation on ice to remove particulate debris, cell suspensions were centrifuged at 400xg and were resuspended in fresh balanced salt solution. Cells to be used as stimulator cells were precluded from proliferating or generating cytotoxic T-lymphocytes by exposure to 1000 rads of gamma irradiation using a ^137 cesium source. […]

C=C1/C(=C\C=C2/CCC[C@]3(C)[C@@H]([C@H](C)C[C@H](O)CC(C)(C)O)CC[C@@H]23)C[C@@H](O)C[C@@H]1O [1α,23S,25-(OH)3 --D3, 1α,23S,25-Trihydroxycholecalciferol]
inhibition at 10 µM (Mus musculus, T-lymphocyte, Table I, 1 × 10^-5 molar, vs vehicle control, read-out: Inhibition of CTL activity (%)): 77%
inhibition at 1 µM (Mus musculus, T-lymphocyte, Table I, 1 × 10^-6 molar, vs vehicle control, read-out: Inhibition of CTL activity (%)): 59%
inhibition at 0.1 µM (Mus musculus, T-lymphocyte, Table I, 1 × 10^-7 molar, vs vehicle control, read-out: Inhibition of CTL activity (%)): 43%
inhibition at 0.01 µM (Mus musculus, T-lymphocyte, Table I, 1 × 10^-8 molar, vs vehicle control, read-out: Inhibition of CTL activity (%)): 18%
inhibition at 0.001 µM (Mus musculus, T-lymphocyte, Table I, 1 × 10^-9 molar, vs vehicle control, read-out: Inhibition of CTL activity (%)): 0%
CTL activity (% specific ^51 Cr release) (Table I, 1 × 10^-5 molar): 10 % specific ^51 Cr release
CTL activity (% specific ^51 Cr release) (Table I, 1 × 10^-6 molar): 18 % specific ^51 Cr release
CTL activity (% specific ^51 Cr release) (Table I, 1 × 10^-7 molar): 25 % specific ^51 Cr release
CTL activity (% specific ^51 Cr release) (Table I, 1 × 10^-8 molar): 36 % specific ^51 Cr release
CTL activity (% specific ^51 Cr release) (Table I, 1 × 10^-9 molar): 45 % specific ^51 Cr release
suppression of murine cytotoxic T-lymphocyte responses (in words) (in vitro): suppress murine cytotoxic T-lymphocyte responses
